Assays:
Assay in all cases: Kinase panel study
Assay type in all cases: biochemical
Details in all cases: read-out: Percentage of inhibition; for inhibition at 1 µM: 1000nM; for inhibition at 10 µM: 10000nM
IGF1R = molecular target: T1, IGF1R (Homo sapiens, UniProt P08069)
T1 construct: purchased Thermo Fisher Scientific
Summary of the method: (§1)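 In vitro, kinase panel; ZLyte or Adapta SOP; single-concentration testing (1 or 10 µM); output = % inhibition, plus IC50 in panel.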

DYRK4 = molecular target: T2, DYRK4 (Homo sapiens, UniProt Q9NR20)
T2 construct: purchased Thermo Fisher Scientific
T2 sequence (Q9NR20 1-520): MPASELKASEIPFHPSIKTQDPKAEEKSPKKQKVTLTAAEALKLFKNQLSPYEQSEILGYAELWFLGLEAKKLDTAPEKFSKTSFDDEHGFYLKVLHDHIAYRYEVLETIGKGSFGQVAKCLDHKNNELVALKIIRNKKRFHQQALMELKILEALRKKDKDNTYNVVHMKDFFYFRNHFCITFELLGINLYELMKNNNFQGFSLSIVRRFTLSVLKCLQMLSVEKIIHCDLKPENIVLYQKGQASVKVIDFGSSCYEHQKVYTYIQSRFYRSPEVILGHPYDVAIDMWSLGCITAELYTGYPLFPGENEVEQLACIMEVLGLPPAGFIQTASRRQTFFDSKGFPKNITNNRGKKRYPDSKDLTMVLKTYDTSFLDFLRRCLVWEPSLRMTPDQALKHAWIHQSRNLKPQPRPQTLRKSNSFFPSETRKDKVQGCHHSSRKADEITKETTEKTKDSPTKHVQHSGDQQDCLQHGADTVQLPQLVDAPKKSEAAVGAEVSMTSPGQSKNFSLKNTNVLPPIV
Summary of the method: as §1

HCK = molecular target: T3, HCK (Homo sapiens, UniProt P08631)
T3 construct: purchased Thermo Fisher Scientific
Summary of the method: as §1

AMPK (A2/B2/G3) = molecular target: T4, AMPK (A2/B2/G3) (Homo sapiens, UniProt P54646)
T4 construct: purchased Thermo Fisher Scientific
Summary of the method: as §1

[1] = molecular target: T5, PIK3CA E542K/PIK3R1 (p11 0 alpha E542K/p85 alpha) (Homo sapiens, UniProt P42336, E542K)
T5 construct: purchased Thermo Fisher Scientific
Summary of the method: as §1

YES1 = molecular target: T6, YES1 (Homo sapiens, UniProt P07947)
T6 construct: purchased Thermo Fisher Scientific
Summary of the method: as §1

CDK9/cyclin T1 = molecular target: T7, CDK9/cyclin T1 (Homo sapiens, UniProt P50750)
T7 construct: purchased Thermo Fisher Scientific
Summary of the method: as §1

FGR = molecular target: T8, FGR (Homo sapiens, UniProt P09769)
T8 construct: purchased Thermo Fisher Scientific
Summary of the method: as §1

CAMK4 (CaMKIV) = molecular target: T9, CAMK4 (CaMKIV) (Homo sapiens, UniProt Q16566)
T9 construct: purchased Thermo Fisher Scientific
Summary of the method: as §1

MARK3 = molecular target: T10, MARK3 (Homo sapiens, UniProt P27448)
T10 construct: purchased Thermo Fisher Scientific
Summary of the method: as §1

PRKCG (PKC gamma) = molecular target: T11, PRKCG (PKC gamma) (Homo sapiens, UniProt P05129)
T11 construct: purchased Thermo Fisher Scientific
Summary of the method: as §1

ITK = molecular target: T12, ITK (Homo sapiens, UniProt Q08881)
T12 construct: purchased Thermo Fisher Scientific
T12 sequence (Q08881 1-620): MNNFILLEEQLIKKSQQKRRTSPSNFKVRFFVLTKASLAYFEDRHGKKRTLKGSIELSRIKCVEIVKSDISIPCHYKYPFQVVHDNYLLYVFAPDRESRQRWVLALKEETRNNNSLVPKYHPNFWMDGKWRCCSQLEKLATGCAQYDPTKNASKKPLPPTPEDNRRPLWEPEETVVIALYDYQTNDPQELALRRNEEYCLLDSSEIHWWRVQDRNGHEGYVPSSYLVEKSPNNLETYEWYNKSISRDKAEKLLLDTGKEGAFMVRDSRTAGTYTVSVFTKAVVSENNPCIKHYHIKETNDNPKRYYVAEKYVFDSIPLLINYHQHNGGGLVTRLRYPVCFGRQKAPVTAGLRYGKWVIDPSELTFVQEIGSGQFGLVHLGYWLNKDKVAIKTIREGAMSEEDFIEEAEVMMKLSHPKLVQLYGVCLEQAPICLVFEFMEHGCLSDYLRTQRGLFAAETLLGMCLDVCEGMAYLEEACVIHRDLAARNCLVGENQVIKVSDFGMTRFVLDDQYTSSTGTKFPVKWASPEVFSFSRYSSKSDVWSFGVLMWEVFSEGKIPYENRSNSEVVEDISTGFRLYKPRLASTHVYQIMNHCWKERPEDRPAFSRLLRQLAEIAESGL
Summary of the method: as §1

T1 sequence (P08069 31-1367): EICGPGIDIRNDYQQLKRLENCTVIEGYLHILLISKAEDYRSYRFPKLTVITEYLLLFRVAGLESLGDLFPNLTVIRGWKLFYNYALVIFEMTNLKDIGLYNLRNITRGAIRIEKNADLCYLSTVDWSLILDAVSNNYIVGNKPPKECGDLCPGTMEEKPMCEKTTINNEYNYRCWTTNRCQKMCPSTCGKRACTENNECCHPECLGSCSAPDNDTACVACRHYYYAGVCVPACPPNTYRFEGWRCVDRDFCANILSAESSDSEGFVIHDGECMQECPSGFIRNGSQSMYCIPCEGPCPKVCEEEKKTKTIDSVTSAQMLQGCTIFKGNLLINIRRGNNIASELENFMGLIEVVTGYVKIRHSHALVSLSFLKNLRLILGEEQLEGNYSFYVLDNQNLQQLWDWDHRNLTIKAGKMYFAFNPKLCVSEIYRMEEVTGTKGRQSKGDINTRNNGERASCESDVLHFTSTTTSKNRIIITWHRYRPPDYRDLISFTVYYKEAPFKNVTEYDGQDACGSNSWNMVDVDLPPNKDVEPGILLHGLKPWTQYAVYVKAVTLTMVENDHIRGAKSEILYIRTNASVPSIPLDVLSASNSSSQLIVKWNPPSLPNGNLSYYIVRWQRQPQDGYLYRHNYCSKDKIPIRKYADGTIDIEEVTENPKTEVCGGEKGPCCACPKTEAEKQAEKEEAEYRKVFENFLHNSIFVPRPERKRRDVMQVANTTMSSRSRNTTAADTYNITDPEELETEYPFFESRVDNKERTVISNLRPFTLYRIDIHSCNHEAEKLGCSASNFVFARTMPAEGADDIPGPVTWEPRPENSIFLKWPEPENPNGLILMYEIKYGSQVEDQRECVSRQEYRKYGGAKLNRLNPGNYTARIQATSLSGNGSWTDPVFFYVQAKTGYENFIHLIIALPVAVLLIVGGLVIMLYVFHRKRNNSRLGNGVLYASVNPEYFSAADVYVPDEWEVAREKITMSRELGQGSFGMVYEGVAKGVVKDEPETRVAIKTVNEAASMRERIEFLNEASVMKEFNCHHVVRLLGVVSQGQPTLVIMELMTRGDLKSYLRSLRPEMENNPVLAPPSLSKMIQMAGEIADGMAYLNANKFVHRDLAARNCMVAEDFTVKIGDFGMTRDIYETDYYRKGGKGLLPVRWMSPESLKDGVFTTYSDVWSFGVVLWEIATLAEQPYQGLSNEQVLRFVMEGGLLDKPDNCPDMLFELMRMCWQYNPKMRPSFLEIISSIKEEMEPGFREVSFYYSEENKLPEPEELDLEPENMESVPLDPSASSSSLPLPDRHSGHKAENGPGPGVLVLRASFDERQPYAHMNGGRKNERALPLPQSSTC
T7 sequence (P50750 whole entry): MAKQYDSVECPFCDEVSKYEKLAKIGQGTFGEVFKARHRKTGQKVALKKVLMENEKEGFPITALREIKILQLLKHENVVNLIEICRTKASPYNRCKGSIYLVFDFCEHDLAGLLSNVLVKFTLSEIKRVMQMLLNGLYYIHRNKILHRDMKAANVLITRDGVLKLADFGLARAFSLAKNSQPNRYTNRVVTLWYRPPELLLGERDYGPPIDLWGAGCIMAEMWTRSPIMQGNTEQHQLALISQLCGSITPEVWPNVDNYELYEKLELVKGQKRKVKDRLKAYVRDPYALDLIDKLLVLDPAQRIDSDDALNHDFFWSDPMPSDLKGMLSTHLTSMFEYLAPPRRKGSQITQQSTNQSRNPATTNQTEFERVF
T7 sequence (O60563 whole entry partner): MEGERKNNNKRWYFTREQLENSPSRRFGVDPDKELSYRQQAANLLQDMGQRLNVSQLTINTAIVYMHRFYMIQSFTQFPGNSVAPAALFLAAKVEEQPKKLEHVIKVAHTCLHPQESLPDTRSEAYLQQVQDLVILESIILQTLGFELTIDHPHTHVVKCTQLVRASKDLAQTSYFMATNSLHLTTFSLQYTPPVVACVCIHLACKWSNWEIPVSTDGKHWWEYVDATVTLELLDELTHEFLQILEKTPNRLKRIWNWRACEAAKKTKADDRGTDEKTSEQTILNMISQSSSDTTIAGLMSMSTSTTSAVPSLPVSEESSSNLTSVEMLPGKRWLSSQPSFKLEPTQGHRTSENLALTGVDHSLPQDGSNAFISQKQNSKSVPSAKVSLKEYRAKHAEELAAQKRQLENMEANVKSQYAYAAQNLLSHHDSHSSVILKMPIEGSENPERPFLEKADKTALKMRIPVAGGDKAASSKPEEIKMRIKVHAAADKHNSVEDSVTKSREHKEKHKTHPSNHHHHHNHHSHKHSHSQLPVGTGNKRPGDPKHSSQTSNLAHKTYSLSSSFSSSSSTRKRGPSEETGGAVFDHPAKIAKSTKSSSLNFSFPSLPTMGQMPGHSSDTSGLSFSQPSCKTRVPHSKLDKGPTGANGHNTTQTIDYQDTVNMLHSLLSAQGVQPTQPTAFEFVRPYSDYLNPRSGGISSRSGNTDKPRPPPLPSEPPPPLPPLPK
T4 sequence (P54646 whole entry): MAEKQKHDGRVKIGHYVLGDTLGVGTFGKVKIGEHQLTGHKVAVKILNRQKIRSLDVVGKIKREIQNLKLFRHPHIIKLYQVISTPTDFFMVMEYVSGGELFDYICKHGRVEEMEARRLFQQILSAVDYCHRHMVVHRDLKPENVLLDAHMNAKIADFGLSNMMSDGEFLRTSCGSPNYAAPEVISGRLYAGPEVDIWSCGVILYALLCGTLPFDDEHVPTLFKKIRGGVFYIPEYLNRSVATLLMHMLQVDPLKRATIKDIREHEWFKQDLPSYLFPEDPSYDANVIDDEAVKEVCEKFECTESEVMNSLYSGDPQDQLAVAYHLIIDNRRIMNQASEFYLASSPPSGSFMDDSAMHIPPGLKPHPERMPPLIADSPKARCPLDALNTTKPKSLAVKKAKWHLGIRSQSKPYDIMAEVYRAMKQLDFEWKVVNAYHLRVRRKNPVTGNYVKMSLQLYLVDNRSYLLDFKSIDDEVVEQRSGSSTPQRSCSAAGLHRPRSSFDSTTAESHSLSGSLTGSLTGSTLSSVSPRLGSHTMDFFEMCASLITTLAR
T4 sequence (O43741 whole entry partner): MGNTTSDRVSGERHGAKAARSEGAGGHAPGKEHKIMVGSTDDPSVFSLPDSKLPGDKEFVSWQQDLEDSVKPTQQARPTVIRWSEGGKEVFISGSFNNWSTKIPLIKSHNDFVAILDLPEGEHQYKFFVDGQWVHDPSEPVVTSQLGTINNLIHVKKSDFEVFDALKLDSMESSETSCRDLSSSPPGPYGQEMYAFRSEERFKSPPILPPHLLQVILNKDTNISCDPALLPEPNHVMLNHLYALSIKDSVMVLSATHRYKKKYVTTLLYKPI
T4 sequence (Q9UGI9 whole entry partner): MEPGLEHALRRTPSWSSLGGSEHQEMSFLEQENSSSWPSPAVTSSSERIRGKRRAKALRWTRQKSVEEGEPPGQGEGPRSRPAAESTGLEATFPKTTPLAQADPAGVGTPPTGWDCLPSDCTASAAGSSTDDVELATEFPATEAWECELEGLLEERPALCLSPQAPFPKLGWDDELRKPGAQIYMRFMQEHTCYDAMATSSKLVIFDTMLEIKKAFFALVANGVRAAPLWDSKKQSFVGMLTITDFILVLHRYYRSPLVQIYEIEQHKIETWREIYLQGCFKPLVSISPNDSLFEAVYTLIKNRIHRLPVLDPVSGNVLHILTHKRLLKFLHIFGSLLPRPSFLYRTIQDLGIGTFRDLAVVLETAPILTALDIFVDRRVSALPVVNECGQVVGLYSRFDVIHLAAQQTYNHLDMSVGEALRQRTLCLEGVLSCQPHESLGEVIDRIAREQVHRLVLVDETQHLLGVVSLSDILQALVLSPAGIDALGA
T8 sequence (P09769 whole entry): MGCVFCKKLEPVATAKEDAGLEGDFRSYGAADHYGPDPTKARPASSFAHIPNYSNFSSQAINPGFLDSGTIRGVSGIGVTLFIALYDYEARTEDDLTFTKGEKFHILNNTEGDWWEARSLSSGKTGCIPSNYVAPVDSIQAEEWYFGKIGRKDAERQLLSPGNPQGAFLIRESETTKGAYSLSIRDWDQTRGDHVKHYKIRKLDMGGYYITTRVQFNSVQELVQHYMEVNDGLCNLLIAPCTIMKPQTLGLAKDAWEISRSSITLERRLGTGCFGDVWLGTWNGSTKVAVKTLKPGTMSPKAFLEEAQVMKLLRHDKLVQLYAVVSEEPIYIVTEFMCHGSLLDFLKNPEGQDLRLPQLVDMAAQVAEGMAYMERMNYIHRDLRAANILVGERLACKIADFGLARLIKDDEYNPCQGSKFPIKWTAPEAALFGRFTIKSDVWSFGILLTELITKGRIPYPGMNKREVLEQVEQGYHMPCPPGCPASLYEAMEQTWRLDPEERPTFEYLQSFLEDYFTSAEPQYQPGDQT

Which results are given for `COc1ccc2c(c1OC)c(=O)n1c3ccc(O)cc3c3ccnc2c31` [MW01, 5-Hydroxy-10,11-dimethoxy-9H-benzo[c]indolo[3,2,1-ij][1,5]naphthyridin-9-one]?
inhibition at 1 µM (IGF1R): 11%; inhibition at 10 µM (IGF1R): 31%; inhibition at 1 µM (DYRK4): -2%; inhibition at 10 µM (DYRK4): 0%; inhibition at 1 µM (HCK): 13%; inhibition at 10 µM (HCK): 22%; inhibition at 1 µM (AMPK (A2/B2/G3)): 8%; inhibition at 10 µM (AMPK (A2/B2/G3)): 18%; inhibition at 1 µM [1]: 94%; inhibition at 10 µM [1]: 96%; inhibition at 1 µM (YES1): 17%; inhibition at 10 µM (YES1): 16%; inhibition at 1 µM (CDK9/cyclin T1): 11%; inhibition at 10 µM (CDK9/cyclin T1): 20%; inhibition at 1 µM (FGR): 10%; inhibition at 10 µM (FGR): 26%; inhibition at 1 µM (CAMK4 (CaMKIV)): -3%; inhibition at 10 µM (CAMK4 (CaMKIV)): 16%; inhibition at 1 µM (MARK3): 0%; inhibition at 10 µM (MARK3): 7%; inhibition at 1 µM (PRKCG (PKC gamma)): 13%; inhibition at 10 µM (PRKCG (PKC gamma)): 16%; inhibition at 1 µM (ITK): 0%; inhibition at 10 µM (ITK): -2%

What does the source list for `COc1ccc2cc3c(N)nn(C(=O)c4cccc(N(C)C)c4)c3nc2c1` [MW05, (3-Amino-7-methoxypyrazolo[3,4-b]quinolin-1-yl)-[3-(dimethylamino)phenyl]methanone]?
inhibition at 1 µM (IGF1R): -1%; inhibition at 10 µM (IGF1R): -12%; inhibition at 1 µM (DYRK4): 4%; inhibition at 10 µM (DYRK4): 4%; inhibition at 1 µM (HCK): 10%; inhibition at 10 µM (HCK): 9%; inhibition at 1 µM (AMPK (A2/B2/G3)): 4%; inhibition at 10 µM (AMPK (A2/B2/G3)): -4%; inhibition at 1 µM [1]: 22%; inhibition at 10 µM [1]: 68%; inhibition at 1 µM (YES1): 15%; inhibition at 10 µM (YES1): 20%; inhibition at 1 µM (CDK9/cyclin T1): 19%; inhibition at 10 µM (CDK9/cyclin T1): 57%; inhibition at 1 µM (FGR): 5%; inhibition at 10 µM (FGR): 15%; inhibition at 1 µM (CAMK4 (CaMKIV)): 2%; inhibition at 10 µM (CAMK4 (CaMKIV)): -9%; inhibition at 1 µM (MARK3): 3%; inhibition at 10 µM (MARK3): -5%; inhibition at 1 µM (PRKCG (PKC gamma)): 11%; inhibition at 10 µM (PRKCG (PKC gamma)): -3%; inhibition at 1 µM (ITK): -10%; inhibition at 10 µM (ITK): -6%

Source: patent EP4467141A1, “PYRAZOLO-QUINOLINES AS SELECTIVE INHIBITORS OF GENOTOXIC STRESS-INDUCED IKK/NF- KB PATHWAYS FOR CANCER THERAPY” (Max-Delbrück-Centrum für Molekulare Medizin in der …, priority 2023, dated 2024)
